Read-outs that look alike come from different tables or passages of the source. Blank lines part the entries; values can stand above or below the molecule they belong to.
Assays:
BRISC [1] = target: T1, BRISC (Homo sapiens, UniProt P46736+Q15018+Q9NXR7); assay: IQF K63-linked diUb DUB activity assay, BRISC; assay type: biochemical; set-up: made in house; host or cells: Spodoptera frugiperda (Sf9) insect cells; conditions: for inhibition of BRISC DUB activity: IQF assay, BRISC 1 nM
Experimental: (§1) BRISC complexes were tested for activity in DUB reaction buffer containing 50 mM HEPES-NaOH pH 7.0, 100 mM NaCl, 0.1 mg/mL BSA, 1 mM DTT, and 0.003% Brij-35. […] Inhibitors were assayed at concentrations up to 200 μM. 20 μL enzyme reactions were carried out in 384-well black flat-bottom low flange plates (Corning; 35373). DUB activity was measured using internally quenched fluorescent (IQF) K63-linked diUb (Lifesensors, catalogue number: DU6303) at 50 or 100 nM. Cleaved diUb was monitored by measuring fluorescence intensity (Ex. 540 nm, Em. 580 nm; dichroic mirror 560 nm). Fluorescence intensity was measured every minute for 30 minutes at 30° C. Fluorescence intensity units for the first 10 minutes were plotted against time to generate a linear reaction progress curve, where the initial velocity (v0) corresponds to the gradient of the curve. IC50 values were calculated using the GraphPad Prism (v8.0) built-in dose-response equation for inhibitor concentration vs. response (variable slope).
(§2) A high throughput biochemical screen was designed to identify inhibitors of BRISC, based on the ability of small molecules to inhibit BRISC cleavage of a K63-linked di-ubiquitin substrate. The di-ubiquitin substrate is designed with a fluorescent TAMRA dye on the proximal ubiquitin moiety and fluorescence quencher on the distal ubiquitin molecule (FIG. 1A). Upon isopeptidase bond cleavage, fluorescence is detected, enabling continuous fluorescent readout of deubiquitylase activity over time (FIG. 1A). The assay conditions were optimised and used to test an in-house compound library comprising of ˜300 published and custom-made kinase inhibitors. From this screen, two hits were identified, compounds AT7519 (well H20) and YM201636 (well P12) (FIG. 1B). The specificity of these compounds was assessed against the broad-spectrum DUB ubiquitin-specific protease-2 (USP2) and the serine protease trypsin which cleave K63-Ub substrate under the same conditions. […] UV-Vis spectroscopy analyses of the compound in well H20 used in the screen compared to the Synkinase and Sellechem AT7519 compounds identified an additional peak in the H20 spectra (FIG. 5C). […] The synthesis of the two isomers was confirmed using mass spectrometry fragmentation analyses (FIG. 5E) and the inhibitory effect of the isomers was tested against BRISC.

ARISC-RAP80 = ARISC-RAP80 (Homo sapiens, UniProt P46736+Q6UWZ7+Q9NXR7); assay: IQF assay with ARISC-RAP80; assay type: biochemical; conditions: FIG. 1E
From the text: (§3) FIGS. 1A-1F show the development a high-throughput screen to identify first-in-class DUB inhibitors. FIG. 1A depicts a diagram of a TAMRA-linked IQF di-ubiquitin substrate (left) and BRISC DUB activity against a fluorescent K63-linked substrate (right).

AMSH-LP = target: T2, AMSH-LP (Homo sapiens, UniProt Q96FJ0); assay: IQF assay with JAMM/MPN DUB AMSH-LP; assay type: biochemical; conditions: FIG. 1E
T2 sequence (Q96FJ0 1-436): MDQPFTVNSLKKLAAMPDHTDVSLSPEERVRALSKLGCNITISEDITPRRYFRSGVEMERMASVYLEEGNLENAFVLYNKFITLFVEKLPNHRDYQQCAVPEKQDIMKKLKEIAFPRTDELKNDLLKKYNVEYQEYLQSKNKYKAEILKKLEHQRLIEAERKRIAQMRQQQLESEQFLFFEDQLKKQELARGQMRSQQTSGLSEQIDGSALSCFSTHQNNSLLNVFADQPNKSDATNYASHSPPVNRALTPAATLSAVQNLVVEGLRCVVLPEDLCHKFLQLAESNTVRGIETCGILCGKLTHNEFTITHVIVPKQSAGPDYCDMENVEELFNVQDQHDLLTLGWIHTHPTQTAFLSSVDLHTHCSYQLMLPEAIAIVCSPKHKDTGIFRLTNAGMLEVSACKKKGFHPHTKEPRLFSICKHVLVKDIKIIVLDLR
From the text: as §3

BRISC [2] = assay: Mass photometry of BRISC oligomeric state; assay type: binding, human; conditions: mass photometry
Experimental: (§4) Microscope coverslips were prepared as previously described^33. All mass photometry experiments were performed using a One^MP mass photometer (Refeyn Ltd, Oxford, UK). For preliminary BRISC-inhibitor measurements, 1 μM BRISC(FL) was mixed with either DMSO or inhibitor at 330 μM and incubated for 15 minutes on ice. Prior to MP measurement, the BRISC-inhibitor mix was diluted in gel filtration buffer (25 mM HEPES, 150 mM NaCl, 1 mM TCEP) for a final concentration of BRISC at 10 nM (0.05% DMSO). 12 μL of this dilution was used for the final MP measurement, following autofocus stabilisation. […] The BRISC-inhibitor mix was used directly for MP measurement using buffer-free autofocus stabilisation. Movies were recorded for 60 seconds using AcquireMP (Refeyn, UK), and were processed using DiscoverMP (Refeyn, UK). Mass photometry image processing has been previously described^33. Briefly, contrast-to-mass (C2M) calibration was performed using protein standards (66-669 kDa) diluted in gel filtration buffer. […] The mass distribution from each run is in a histogram, where count refers to each landing event and a Gaussian sum is fitted to the data. The relative amount of each species is calculated as the area of each Gaussian, where a refers to the standard deviation of the fitted Gaussian. […] Curves were fitted and EC50 values were calculated using the GraphPad Prism (v8.0) built-in dose-response equation for concentration of agonist vs. response (variable slope).

BRISC [3] = target: T1, BRISC; assay: Mass photometry of BRISC oligomeric state; assay type: binding; conditions: purified BRISC mixed with inhibitor, FIG. 2B
Experimental: as §4

ARISC = ARISC (Homo sapiens, UniProt P46736+Q6UWZ7+Q9NXR7); assay: IQF assay with ARISC; assay type: biochemical; conditions: FIG. 1E
From the text: as §3

BRISC(FL) = target: T3, BRISC(FL) (Homo sapiens, UniProt P46736+Q15018+Q9NXR7); assay: Native mass spectrometry of BRISC with inhibitor; assay type: binding; conditions: 10 μM BRISC(FL), 1 mM inhibitor
T3 construct: The four-subunit human BRISC (full-length (FL) and MERIT40ΔN, Abraxas2ΔC) complex was cloned; made in house; host or cells: Spodoptera frugiperda (Sf9) insect cells
Experimental: Samples were buffer exchanged into 500 mM ammonium acetate using Zeba Spin 7K MWCO desalting columns (ThermoFisher). Gold and palladium coated nanospray tips were prepared in-house and mounted on the nano-electrospray ionisation source. Mass spectra were acquired on a Q Exactive Ultra-High Mass Range Hybrid Quadrupole-Orbitrap mass spectrometer (Thermo Fisher), optimised for mass resolution at high m/z ratios. Data were visualised and processed using Mass Lynx (v4.1) and UniDec (v2.7.1).

Trypsin = assay: IQF di-ubiquitin assay, trypsin specificity; assay type: biochemical; conditions: Trypsin 125 nM, K63-Ub substrate
From the text: (§5) FIGS. 5A-5E show validation of hit compounds.
as §2

USP2 = USP2 (Homo sapiens, UniProt O75604); assay: IQF di-ubiquitin assay, USP2 specificity; assay type: biochemical; conditions: USP2 100 nM, K63-Ub substrate
From the text: as §5, §2

BRISC BRCC36 Trp130Ala = BRISC BRCC36 Trp130Ala (Homo sapiens, UniProt P46736+Q15018+Q9NXR7, W130A); assay: IQF DUB assay, BRISC mutant BRCC36 Trp130Ala; assay type: biochemical; conditions: FIG. 4C
Experimental: (§6) The four-subunit human BRISC (full-length (FL) and MERIT40ΔN, Abraxas2ΔC) complex was cloned using the MultiBac system and co-expressed in Spodoptera frugiperda (Sf9) insect cells^32. BRISC mutants were cloned into pFastBac vectors in the Bac-to-Bac system (ThermoFisher), baculoviruses generated in Sf9 cells and used for co-infection of Trichoplusia ni (Tni) cells. All BRISC complexes were purified as previously described^12,13.
as §1, with “20 μL enzyme reactions were carried out in 384-well black flat-bottom low flange plates (Corning; 35373).” left out, “slope). […]” for “slope).”

BRISC BRCC36 Leu169Ala = BRISC BRCC36 Leu169Ala (Homo sapiens, UniProt P46736+Q15018+Q9NXR7, L169A); assay: IQF DUB assay, BRISC mutant BRCC36 Leu169Ala; assay type: biochemical; conditions: FIG. 4C
Experimental: as §6
as §1, with “20 μL enzyme reactions were carried out in 384-well black flat-bottom low flange plates (Corning; 35373).” left out, “slope). […]” for “slope).”

BRISC Abraxas2 Thr140Ala = BRISC Abraxas2 Thr140Ala (Homo sapiens, UniProt P46736+Q15018+Q9NXR7, T140A); assay: IQF DUB assay, BRISC mutant Abraxas2 Thr140Ala; assay type: biochemical; conditions: FIG. 4C
Experimental: as §6
as §1, with “20 μL enzyme reactions were carried out in 384-well black flat-bottom low flange plates (Corning; 35373).” left out, “slope). […]” for “slope).”

BRISC [4] = target: T1, BRISC; set-up: made in house; host or cells: Spodoptera frugiperda (Sf9) insect cells; conditions: BRISC WT, reference 13; cited from earlier work

Chain of USP2 (O75604 whole entry, species assumed): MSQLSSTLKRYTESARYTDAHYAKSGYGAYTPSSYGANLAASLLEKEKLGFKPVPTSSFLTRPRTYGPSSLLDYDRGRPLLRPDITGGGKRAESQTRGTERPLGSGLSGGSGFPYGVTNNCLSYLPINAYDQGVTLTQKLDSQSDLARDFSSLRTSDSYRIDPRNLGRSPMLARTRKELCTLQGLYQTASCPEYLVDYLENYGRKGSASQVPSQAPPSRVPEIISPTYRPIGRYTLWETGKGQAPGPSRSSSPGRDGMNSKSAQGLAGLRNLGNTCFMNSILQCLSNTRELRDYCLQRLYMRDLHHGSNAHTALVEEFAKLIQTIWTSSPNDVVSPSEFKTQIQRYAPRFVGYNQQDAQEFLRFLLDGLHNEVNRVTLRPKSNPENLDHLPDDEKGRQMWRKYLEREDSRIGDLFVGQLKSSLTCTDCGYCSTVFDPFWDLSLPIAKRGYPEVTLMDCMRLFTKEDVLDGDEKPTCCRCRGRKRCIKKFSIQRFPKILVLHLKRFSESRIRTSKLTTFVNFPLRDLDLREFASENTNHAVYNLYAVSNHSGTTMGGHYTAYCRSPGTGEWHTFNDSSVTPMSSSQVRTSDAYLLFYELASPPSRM

inhibition of USP2 (USP2): inhibited | inhibition of BRISC DUB activity (BRISC [1]): inhibited
Molecule: Nc1ccc(C(=O)Nc2cccc(-c3nc(N4CCOCC4)c4oc5ncccc5c4n3)c2)cn1 [YM201636]
inhibition of trypsin (Trypsin): inhibited

inhibition in the presence of SHMT2 (BRISC BRCC36 Trp130Ala): reduced inhibition | inhibition in the presence of SHMT2 (BRISC BRCC36 Leu169Ala): reduced inhibition | inhibition in the presence of SHMT2 (BRISC Abraxas2 Thr140Ala): reduced inhibition
B1: serine hydroxymethyltransferase (protein)
chain: QLVRMAIRAQHSNAAQTQTGEANRGWTGQESLSDSDPEMWELLQREKDRQCRGLELIASENFCSRAALEALGSCLNNKYSEGYPGKRYYGGAEVVDEIELLCQRRALEAFDLDPAQWGVNVQPYSGSPANLAVYTALLQPHDRIMGLDLPDGGHLTHGYMSDVKRISATSIFFESMPYKLNPKTGLIDYNQLALTARLFRPRLIIAGTSAYARLIDYARMREVCDEVKAHLLADMAHISGLVAAKVIPSPFKHADIVTTTTHKTLRGARSGLIFYRKGVKAVDPKTGREIPYTFEDRINFAVFPSLQGGPHNHAIAAVAVALKQACTPMFREYSLQVLKNARAMADALLERGYSLVSGGTDNHLVLVDLRPKGLDGARAERVLELVSITANKNTCPGDRSAITPGGLRLGAPALTSRQFREDDFRRVVDFIDEGVNIGLEVKSKTAKLQDFKSFLLKDSETSQRLANLRQRVEQFARAFPMPGFDEH
inhibition of BRISC DUB activity (BRISC [4]): potent inhibitor

Second part, the molecule before the results:

Molecule: O=C(NC1CCNCC1)c1[nH]ncc1NC(=O)c1c(Cl)cccc1Cl [AT7519, reference compound]
inhibition of BRISC DUB activity (BRISC [1]): neither were found to inhibit

Molecule: O=C(NC1CCNCC1)c1nn(C(=O)c2c(Cl)cccc2Cl)cc1NC(=O)c1c(Cl)cccc1Cl [JMS-175-2]
specificity for BRISC over ARISC-RAP80 (ARISC-RAP80): specifically inhibits BRISC over | inhibition of AMSH-LP (AMSH-LP): no inhibition | IC50 (BRISC [1]; IQF K63-linked diUb substrate, FIG. 1D, read-out: IC50 inhibiting BRISC): 1500 nM | inhibition of BRISC DUB activity (BRISC [1]): specific inhibition | dimer formation at increasing inhibitor concentration (BRISC [2]): dose-dependent increase in dimer formation | mass photometry counts, 1:1:1:1 complex (BRISC [3]): 8% | mass photometry counts, dimer (BRISC [3]): 69% | mass photometry counts, monomer (BRISC [3]): 14% | specificity for BRISC over ARISC (ARISC): specifically inhibits BRISC over | BRISC species by native mass spectrometry (BRISC(FL)): BRISC dimers with a MW consistent with a 4:4:4:4 stoichiometry were observed

Molecule: O=C(NC1CCN(C(=O)c2c(Cl)cccc2Cl)CC1)c1n[nH]cc1NC(=O)c1c(Cl)cccc1Cl [AP-5-144]
inhibition of BRISC DUB activity (BRISC [1]): no inhibition
